The target of the assay is Farnesyl-protein transferase (FTase). Briefly: In vitro inhibition of Ras farnesyl transferase (farnesylation of Ras-CVLS with [3H]FPP). The assay is classed as biochemical. To be noted: Ras-CVLS 3.5 μM, [3H]FPP 0.25 μM; partially purified bovine or recombinant human enzyme; read-out: IC50 (concentration of the test compound which gives 50% inhibition of FTase). The procedure:
Farnesyl-protein transferase (FTase) from bovine brain was chromatographed on DEAE-Sephacel (Pharmacia, 0-0.8 M NaCl gradient elution), N-octyl agarose (Sigma, 0-0.6 M NaCl gradient elution), and a mono Q HPLC column (Pharmacia, 0-0.3 M NaCl gradient). Ras-CVLS at 3.5 μM, 0.25 μM [^3 H]FPP, and the indicated compounds were incubated with either a partially purified bovine enzyme preparation or a recombinant human enzyme preparation. The recombinant human enzyme was prepared as described in Omer, C. A., Kral, A. M., Diehl, R. E., Prendergast, G. C., Powers, S., Allen, C. M., Gibbs, J. B. and Kohl, N. E. (1993) Biochemistry 32:5167-5176. The FTase data presented below in Table 1 reflects the ability of the test compound to inhibit RAS farnesylation in vitro, as described in Pompliano, et al. Biochemistry 31:3800 (1992).
*(IC50 is the concentration of the test compound which gives 50%
inhibition of FTase under the described assay conditions)
Turning to `N[C@@H](CS)C(=O)NC1N=C(c2ccccc2)c2ccccc2NC1=O` (single isomer, unassigned) [2 - slower eluting isomer], the IC50 is 42000 nM.

Regarding “3-[N-2(S)-amino-3-mercaptopropionyl-N-methyl]amino-2,3-dihydro-2-oxo-5-phenyl-1H-1,4-benzodiazepine [1 - slower eluting isomer]”, the IC50 was 110 nM.

As for `N[C@@H](CS)C(=O)NC1N=C(c2ccccc2)c2ccccc2NC1=O` (single isomer, unassigned) [2 - faster eluting isomer], the IC50 was found to be 1600 nM.

`CN(C(=O)[C@@H](N)CS)C1N=C(c2ccccc2)c2ccccc2NC1=O` (single isomer, unassigned) [1 - faster eluting isomer]: the IC50 was 2600 nM.

For the origin of these results see patent US5753650A, “Inhibitors of farnesyl-protein transferase” (Merck & Co., Inc., priority 1996, dated 1998).
